Data set [1] in a line: water solubility. It counts as physicochemical.
The subject of data set [2] is mice. The following applies: administered to mice; see U.S. Ser. Nos. 11/433,057 and 11/433,626; cited from earlier work.

Consider `O=C(c1ccc(-c2cccc(Cl)c2)cc1)C1CCN(c2ncccn2)CC1` [(3′-chlorobiphenyl-4-yl)(1-(pyrimidin-2-yl)piperidin-4-yl)methanone], for which, in data set [1], the water solubility entry is “poorly water soluble”. In addition, the “effect on learning and memory” value in data set [2] was “increase learning and memory”.

The values above are taken from US20090005407A1, “PARTICULATE (3'-CHLOROBIPHENYL-4-YL)(1-(PYRIMIDIN-2-YL)PIPERIDIN-4-YL)METHANONE AND METHODS OF ITS USE” (priority 2007, published 2009).
